In patent US9636409B2, “Enzyme and receptor modulation using covalent conjugates of alpha,alpha-disubstituted glycine esters” (GlaxoSmithKline Intellectual Property Development Limited, priority 2008, dated 2017):
Where two headings read alike, the source gives them in different places.

How the values were obtained:
[1] = system: cell lysate from U937 cells; assay: Broken cell carboxylesterase assay (U937 cell extract); assay type: in vitro ADME; settings: ester 2.5 μM
Protocol: Broken Cell Carboxylesterase Assay
Any given compound of the present invention wherein ester conjugate according to the invention may be tested to determine whether it meets the requirement that it be hydrolysed by intracellular esterases, by testing in the following assay.
Preparation of Cell Extract
U937 or HCT 116 tumour cells (˜10^9) were washed in 4 volumes of Dulbeccos PBS (˜1 liter) and pelleted at 525 g for 10 min at 4° C. This was repeated twice and the final cell pellet was re-suspended in 35 mL of cold homogenising buffer (Trizma 10 mM, NaCl 130 mM, CaCl2 0.5 mM pH 7.0 at 25° C.). Homogenates were prepared by nitrogen cavitation (700 psi for 50 min at 4° C.). The homogenate was kept on ice and supplemented with a cocktail of inhibitors at final concentrations of: • Leupeptin 1 μM • Aprotinin 0.1 μM • E64 8 μM • Pepstatin 1.5 μM • Bestatin 162 μM • Chymostatin 33 μM
After clarification of the cell homogenate by centrifugation at 525 g for 10 min, the resulting supernatant was used as a source of esterase activity and was stored at −80° C. until required. […]
Hydrolysis of esters to the corresponding carboxylic acids can be measured using the cell extract, prepared as above. […] After centrifugation at 12000 g for 5 min, samples were analysed for the ester and its corresponding carboxylic acid at room temperature by LCMS (Sciex API 3000, HP1100 binary pump, CTC PAL). […]

[2] = system: phosphorylation of MAPKAP-2 in U937 cells; assay: p38 MAP Kinase cellular assay: inhibition of phosphorylation of MAPKAP2 in U937 cells; assay type: cell-based; settings: for IC50: Homo sapiens, U-937
Protocol: p38 MAP Kinase Cellular Assay: Inhibition of Phosphorylation of MAPKAP2
U937 or HUT78 cells were plated in RPMI 1640, and were incubated at 37° C., 5% CO2 for 18 hours. 10 mM stocks of compounds were diluted media/0.1% DMSO to give a log or semi-log dilution series. The wells for ‘no treatment’ and ‘anisomycin’ were treated with 0.1% DMSO only. The cells were incubated at 37° C., 5% CO2 for a further 4 hours. Anisomycin was added to all wells except ‘no treatment’ at a final concentration of 10 μM. The cells were incubated at 37° C., 5% CO2 for 30 minutes before harvest. Plates were stood on ice whilst harvesting, and all following steps were carried out at 4° C. The cells were pelleted at 1000 rpm for 10 minutes at 4° C., the media aspirated, and the pellet washed with cold PBS. The pellets were lysed in 120 μl of SDS lysis buffer (62.5 mM Tris, pH 6.8, 2% SDS, 10% glycerol, 50 mM DTT, with protease inhibitors and phosphatase inhibitors added according to the manufacturers' recommendations). After 30 minutes on ice, the samples were sonicated for 5 seconds before centrifugation at 13,000 rpm 4° C. for 10 minutes to remove cell debris. 10 μl of the resulting gel samples were loaded per lane on NOVEX 4-12% Bis-Tris MOPS gels. Membranes from western transfer of gels were blotted with anti-phospho MAPKAP2, anti-phospho HSP27 and anti GAPDH according to the manufacturers' Instructions. Signal was visualised using HRP-Hnked anti-rabbit or anti-mouse antibodies, ECL reagent and ECL film. IC50 values for the various compounds were visualised from the resulting photographic images, using both band-shift and signal intensity.

Cleavage by cell lysate from U937 cells [1]: 165 pg/mL/min
IC50 ([2]; Table 1 (biology), U937 cells, read-out: Inhibition of phosphorylation of MAPKAP-2 in U937 cells (IC50)): 10 nM
IC50 ([2]; Table 2, U937 monocyte cell line, read-out: Inhibition of phosphorylation of MAPKAP-2 in U937 cells (IC50, nM) (monocyte cell line)): 10 nM
Ratio cell IC50s to enzyme IC50 ([2]; U937 MAPKAP-2 IC50 to P38 enzyme IC50): 0.2
SMILES: CC(C)(NCCc1ccc(-n2c(N)c(C(=O)c3ccc(F)cc3F)ccc2=O)cc1)C(=O)OC1CCCC1 [Example 1]
potency in monocytic versus non monocytic cell lines (MAPKAP-2 phosphorylation) ([2]; U937 versus HUT 78): 100 times
potency in the p38 cellular assay compared with the parent compound ([2]; versus Compound I): significantly more potent than the parent compound
